Measured values published in patent US9771369B2, “Compounds and methods for kinase modulation, and indications therefor” (Plexxikon Inc., priority 2014, dated 2017).

Assays:
[1] = test system: BaF3-FL KIT D816V or BaF3-FL KIT V560G/D816V cell line; experiment: Cell-based assays of c-Kit mutant kinase activity (cell proliferation, ATPlite); settings: at least one of the c-kit cell assays of Example 7
Procedure: The c-Kit mutant D816V inhibitors were assessed using an engineered BaF3-FL KIT D816V or BaF3-FL KIT V560G/D816V cell line. The BaF3-FL KIT D816V cell lines were created by introduction of KIT mutant (D816V) full length constructs that render the cells dependent on the introduced kinase for growth. Inhibitors of c-Kit mutant D816V kinase reduce or eliminate the mediated c-kit mutant D816V kinase activation, resulting in reduced cell proliferation of the BaF3-FL Kit mutant D816V cells. This inhibition is measured by the effect of compound concentration on cell growth to assess IC50 values. BaF3-FL KIT D816V cells were seeded at 1×10^4 cells per well of a 96 well cell culture plate in 50 μl of cell culture medium of RPMI Medium 1× (Invitrogen #11875-093) supplemented with 10% FBS (Invitrogen #10438), 1% Non Essential Amino Acids (Invitrogen #11140), 1% Penicillin Streptomycin (Invitrogen #15140), 1% L-Glutamine (Invitrogen #25030-081). Compounds were dissolved in DMSO at a concentration of 5 mM and were serially diluted 1:3 for a total of eight points and added to the cells to a final maximum concentration of 10 μM in 100 μl cell culture medium (final concentration 0.2% DMSO). Cells were also treated with Dasatinib as a positive control. The cells were incubated at 37° C., 5% CO2 for three days. ATPlite Buffer (Perkin Elmer #6016739) and substrate were equilibrated to room temperature, and enzyme/substrate Recombinant Firefly Luciferase/D-Luciferin was reconstituted. The cell plates were equilibrated to room temperature for 30 minutes, then lysed by addition of 25 μL per well of the ATPlite Reagent. The plate was mixed for 5 minutes on a plate shaker to lyse the cells. The plates were read on a Tecan Safire using Luminescence protocol modified to read 0.1s per well. The luminescence reading assesses the ATP content, which correlates directly with cell number such that the reading as a function of compound concentration is used to determine the IC50 value.
Plasmids P75635 and P75565 were engineered for mammalian cell expression. In both plasmids, full-length human v-kit Hardy-Zuckerman 4 feline sarcoma viral oncogene homolog gene (NCBI accession NM_000222, KIT, residues M1-V976) was subcloned into the pCI-Neo vector (Promega E1841). Plasmid P75635 contains the mutation of residue Aspartic acid 816 to Valine. Plasmid P75565 contains the double mutation of residues Valine 560 to Glycine and Aspartic acid 816 to Valine. The pCI-neo Mammalian Expression Vector carries the human cytomegalovirus (CMV) immediate-early enhancer/promoter region to promote constitutive expression of KIT and contains the neomycin phosphotransferase gene, a selectable marker.
It is understood that the results of these assays may vary as assay conditions are varied. Inhibition levels determined under the conditions described herein represent a relative activity for the compounds tested under the specific conditions employed. The cell based assays are likely to show variability due to the complexity of the system and the sensitivity thereof to any changes in the assay conditions. […] In some instances, the compounds were not tested in all of the assays, or assay results were not valid.

c-Kit kinase = c-Kit kinase (Homo sapiens (Human), UniProt P10721); experiment: c-Kit biochemical assay (AlphaScreen kinase activity)
Procedure: Assays for biochemical cell-based activity of c-kit kinase are known in the art, for example, as described in U.S. Pat. Nos. 7,498,342 and 7,846,941, the disclosures of which are hereby incorporated by reference as it relates to such assays. The c-kit (or kinase domain thereof) is an active kinase in AlphaScreen. IC50 values are determined with respect to inhibition of c-Kit kinase activity, where inhibition of phosphorylation of a peptide substrate is measured as a function of compound concentration. Compounds to be tested were dissolved in DMSO to a concentration of 30 mM. These were diluted 30 μl into 130 μl of DMSO (4 mM) and 1 μl was added to an assay plate. These were then serially diluted 1:3 (50 μl to 100 μl DMSO) for a total of 8 points. Plates were prepared such that each kinase reaction is 30 μl in 1× kinase buffer (50 mM HEPES, pH 7.2, 5 mM MgCl2, 5 mM MnCl2, 0.01% NP-40, 0.2% BSA), 5% DMSO and 10 μM ATP. Substrate was 100 nM biotin-(E4Y)3 (Open Source Biotech, Inc.). C-kit kinase was at 0.1 ng per sample. After incubation of the kinase reaction for 1 hour at room temperature, 5 μl of donor beads (Streptavidin coated beads (Perkin Elmer Life Science) final concentration 1 μg/ml) in stop buffer (50 mM EDTA in 1× kinase buffer) was added, the sample was mixed and incubated for 30 minutes at room temperature before adding […] of acceptor beads (PY30 coated beads (Perkin Elmer Life Science) final concentration 1 μg/ml) in stop buffer. The samples were incubated for 60 minutes at room temperature and the signal per well was read on AlphaQuest reader. Phosphorylated substrate results in binding of the PY30 antibody and association of the donor and acceptor beads such that signal correlates with kinase activity. The signal vs. compound concentration was used to determine the IC50.
Compounds were also tested using a similar assay with a 10-fold higher ATP concentration. For these samples, compounds to be tested were dissolved in DMSO to a concentration of 30 mM. These were diluted 30 μl into 130 μl of DMSO (4 mM) and 1 μl was added to an assay plate. These were then serially diluted 1:3 (50 μl to 100 μl DMSO) for a total of 8 points. Plates were prepared such that each kinase reaction is 30 μl in 1× kinase buffer (25 mM HEPES, pH 7.5, 2 mM MgCl2, 2 mM MnCl2, 0.01% […], 1 mM DTT, and 0.001% BSA), 5% DMSO and 100 μM ATP. Substrate was 30 nM biotin-(E4Y)10 (Upstate Biotech, Cat#12-440). C-kit kinase was at 1 ng per sample. After incubation of the kinase reaction for 1 hour at room temperature, 5 μl of donor beads (Streptavidin coated beads (Perkin Elmer Life Science) final concentration 10 μg/ml) in stop buffer (25 mM HEPES pH 7.5, 100 mM EDTA, 0.3% BSA) was added, the sample was mixed and incubated for 30 minutes at room temperature before adding 5 μl of acceptor beads (PY30 coated beads (Perkin Elmer Life Science) final concentration 10 μg/ml) in stop buffer. The samples were incubated for 60 minutes at room temperature and the signal per well was read on AlphaQuest or Envision reader (Perkin Elmer Life Science). Phosphorylated substrate results in binding of the PY30 antibody and association of the donor and acceptor beads such that signal correlates with kinase activity. The signal vs. compound concentration was used to determine the IC50.
The c-kit enzyme used in the above assay was either obtained from Cell Signaling Technology (Cat. #7754) or was prepared as follows: A plasmid encoding kit (DNA and encoded protein sequences shown below) was engineered using common polymerase chain reaction (PCR) methods. Complementary DNA cloned from various human tissues were purchased from Invitrogen, and these were used as substrates in the PCR reactions. Specific custom synthetic oligonucleotide primers were designed to initiate the PCR product, and also to provide the appropriate restriction enzyme cleavage sites for ligation with the plasmids. […]

c-kit mutant D816V = c-kit mutant D816V (Homo sapiens (Human), UniProt P10721, D816V/DEL694-753); experiment: c-Kit mutant D816V biochemical assay (AlphaScreen kinase activity)
Procedure: The c-kit mutant D816V (or kinase domain thereof) is an active kinase in AlphaScreen. IC50 values are determined with respect to inhibition of c-Kit mutant D816V kinase activity, where inhibition of phosphorylation of a peptide substrate is measured as a function of compound concentration. Compounds to be tested were dissolved in DMSO to a concentration of 30 mM. These were diluted […] of DMSO (4 mM) and 1 μl was added to an assay plate. These were then serially diluted 1:3 (50 μl to […] DMSO) for a total of 8 points. Plates were prepared such that each kinase reaction is […] in 1× kinase buffer (25 mM HEPES, pH 7.2, 8 mM MgCl2, 2 mM MnCl2, 50 mM NaCl, 0.01% Brij, 1 mM DTT, 0.01% BSA), 5% DMSO and 10 μM ATP. Substrate was 30 nM biotin-(E4Y)10 (EMD Millipore, Cat#12-440). C-kit mutant D816V kinase was at 0.75 ng per sample. After incubation of the kinase reaction for 30 minutes at room temperature, 5 μl of donor beads (Streptavidin coated beads (Perkin Elmer Life Science) final concentration 7.5 μg/ml) in stop buffer (25 mM Hepes pH 7.5, 100 mM EDTA, 0.01% BSA) was added, the sample was mixed and incubated for 30 minutes at room temperature before adding […] of acceptor beads (PY30 coated beads (Perkin Elmer Life Science) final concentration 7.5 μg/ml) in stop buffer. The samples were incubated for 60 minutes at room temperature and the signal per well was read on EnVision reader. Phosphorylated substrate results in binding of the PY30 antibody and association of the donor and acceptor beads such that signal correlates with kinase activity. The signal vs. compound concentration was used to determine the IC50.
Recombinant c-kit mutant D816V (residues 551-934, kinase insertion domain residues 694-753 deleted) with a 6×-histidine N-terminal tag (SEQ ID NO: 3) was expressed in E. coli Arctic Express (DE3) RIL (Stratagene). Cells were grown in Terrific Broth (TB) media to an OD600 of 0.6 at 37° C. at which temperature was reduced to 10° C., protein was induced with 1.0 mM IPTG for 18 hours and harvested by centrifugation at 8000×g for 30 minutes. Cells were re-suspended in 0.1M KPO4 pH 8.0, 250 mM NaCl, 10% Glycerol, 0.75% NP-40, 25 mM Imidazole, 5 mM BME with 0.2 mg/ml Lysosyme, 2.0 mM PMSF, 25 μg/ml DNAse I, incubated in ice for 30 minutes and lyzed with a cell disruptor (MicroFluidics). The lysate was clarified by centrifugation at 30,000×g for 2 hours. The protein was captured with Talon resin (Clontech). Contaminating proteins were washed off with 25 mM Tris-HCl pH 8.3, 250 mM NaCl, 15% Glycerol, 1% Triton X-100, and protein eluted using 100 mM EDTA. The protein was further purified using Gel Filtration column 26/600 Superdex 300 (GE) in 50 mM Tris-HCl , pH 8.0, 250 mM NaCl, 15% Glycerol, 5 mM BME. The protein was aliquoted and flash-frozen in liquid Nitrogen.

Sequence of c-kit mutant D816V (P10721 other isoform, or with tags, fused parts or gaps D816V/del 694-753): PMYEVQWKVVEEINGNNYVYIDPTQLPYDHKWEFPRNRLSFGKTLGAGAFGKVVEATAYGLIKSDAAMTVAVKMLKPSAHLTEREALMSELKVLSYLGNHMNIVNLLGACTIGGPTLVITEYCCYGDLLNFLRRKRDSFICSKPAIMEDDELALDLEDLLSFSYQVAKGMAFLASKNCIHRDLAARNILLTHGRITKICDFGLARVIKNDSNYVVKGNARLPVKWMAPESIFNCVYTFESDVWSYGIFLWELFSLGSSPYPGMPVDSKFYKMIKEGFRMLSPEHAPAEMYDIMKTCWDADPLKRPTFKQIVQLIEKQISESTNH
Sequence of c-Kit kinase (P10721 26-976): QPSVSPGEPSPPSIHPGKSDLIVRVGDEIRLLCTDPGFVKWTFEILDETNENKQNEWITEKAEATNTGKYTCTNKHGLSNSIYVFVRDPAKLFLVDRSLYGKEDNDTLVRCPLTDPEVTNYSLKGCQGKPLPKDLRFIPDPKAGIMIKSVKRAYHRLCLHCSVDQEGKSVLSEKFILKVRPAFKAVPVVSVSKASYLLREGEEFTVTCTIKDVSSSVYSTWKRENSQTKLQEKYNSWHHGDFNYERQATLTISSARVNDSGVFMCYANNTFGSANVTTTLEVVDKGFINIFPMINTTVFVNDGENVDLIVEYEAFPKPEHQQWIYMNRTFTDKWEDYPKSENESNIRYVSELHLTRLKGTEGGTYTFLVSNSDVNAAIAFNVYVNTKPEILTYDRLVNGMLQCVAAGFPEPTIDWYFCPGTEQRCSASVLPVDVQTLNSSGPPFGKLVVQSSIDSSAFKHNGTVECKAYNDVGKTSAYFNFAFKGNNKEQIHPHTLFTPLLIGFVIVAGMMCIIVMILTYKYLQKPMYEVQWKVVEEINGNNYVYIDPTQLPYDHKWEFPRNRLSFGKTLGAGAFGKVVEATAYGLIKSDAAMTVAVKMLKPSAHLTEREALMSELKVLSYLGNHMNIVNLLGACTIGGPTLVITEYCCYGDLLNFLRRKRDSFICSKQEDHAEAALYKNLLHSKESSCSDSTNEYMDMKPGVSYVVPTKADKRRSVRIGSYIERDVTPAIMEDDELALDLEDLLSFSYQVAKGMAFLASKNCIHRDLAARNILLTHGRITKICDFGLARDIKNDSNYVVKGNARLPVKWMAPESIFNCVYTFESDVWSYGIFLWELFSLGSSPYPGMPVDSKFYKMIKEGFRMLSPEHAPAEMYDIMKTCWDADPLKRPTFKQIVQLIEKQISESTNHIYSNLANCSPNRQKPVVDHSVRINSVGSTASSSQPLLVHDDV

Row | Structure (SMILES) | IC50 [1] [nM] | IC50 (c-Kit kinase) [µM] | IC50 (c-kit mutant D816V) [µM]
1 | Cc1[nH]c(C2CCN(c3ncnc4[nH]c(-c5ccncc5)cc34)CC2)nc1-c1ccccc1 [P-3001, 4-[4-(5-methyl-4-phenyl-1H-imidazol-2-yl)-1-piperidyl]-6-(4-pyridyl)-7H-pyrrolo[2,3-d]pyrimidine] | < 10000 | 0.0001 to 1 | 
2 | Cc1nc(C2CCN(c3ncnc4[nH]c(-c5cccc(Cl)c5)cc34)CC2)[nH]c1-c1ccccc1 [P-3082, 6-(3-chlorophenyl)-4-[4-(4-methyl-5-phenyl-1H-imidazol-2-yl)-1-piperidyl]-7H-pyrrolo[2,3-d]pyrimidine] | < 10000 |  | 0.0001 to 1
3 | COc1cc(-c2[nH]c(C3CCN(c4ncnc5[nH]c(-c6ccc(F)cc6)cc45)CC3)nc2C)ccc1C [P-3103, 6-(4-fluorophenyl)-4-[4-[5-(3-methoxy-4-methyl-phenyl)-4-methyl-1H-imidazol-2-yl]-1-piperidyl]-7H-pyrrolo[2,3-d]pyrimidine] |  | 1 to 10 | 0.0001 to 1
4 | COc1ccc(-c2[nH]c(C3CCN(c4ncnc5[nH]c(-c6ccc(F)cc6)cc45)CC3)nc2C(F)(F)F)cc1 [P-3147, 6-(4-fluorophenyl)-4-[4-[5-(4-methoxyphenyl)-4-(trifluoromethyl)-1H-imidazol-2-yl]-1-piperidyl]-7H-pyrrolo[2,3-d]pyrimidine] | < 10000 |  | 0.0001 to 1
5 | Cc1cc2c(N3CCC(C)(c4nc(C)c(-c5ccc(Cl)cc5)[nH]4)CC3)ncnc2[nH]1 [P-3174, 4-[4-[5-(4-chlorophenyl)-4-methyl-1H-imidazol-2-yl]-4-methyl-1-piperidyl]-6-methyl-7H-pyrrolo[2,3-d]pyrimidine] | < 10000 |  | 0.0001 to 1
